# Experimental data as given in paper PMC5379069, “A Pseudomonas T6SS effector recruits PQS-containing outer membrane vesicles for iron acquisition” (Nature Communications, 2017).
# Tests used:
# TseF (PA2374) [1] = target: T1, TseF (PA2374) (Pseudomonas aeruginosa, UniProt Q9I1A5); experiment: ITC; also fat western blot; assay type: binding
# TseF (PA2374) [2] = target: T1, TseF (PA2374); experiment: ITC; also immobilized-PQS pull-down and fat western blot; Kd […] with Fe3+; assay type: binding
# T1 sequence (Q9I1A5 entry or part of it): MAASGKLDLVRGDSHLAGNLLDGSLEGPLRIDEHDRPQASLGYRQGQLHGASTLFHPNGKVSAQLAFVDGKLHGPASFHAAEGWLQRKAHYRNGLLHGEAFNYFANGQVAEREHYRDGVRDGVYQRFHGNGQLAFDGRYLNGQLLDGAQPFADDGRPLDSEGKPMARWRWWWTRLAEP
SMILES,Kd (TseF (PA2374) [1]),Kd (TseF (PA2374) [2])
"CCCCCCCc1cc(O)c2ccccc2n1 [HHQ, 4-hydroxy-2-heptylquinoline]",25.7 µM,–
"CCCCCCCc1[nH]c2ccccc2c(=O)c1O [PQS, 2-heptyl-3-hydroxy-4-quinolone]",–,0.33 µM
